In PubChem BioAssay (NCI):
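How tested: cells in 96-well plates exposed to compound for 48 hours at five concentrations. At the TGI there is no net growth.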

Legend:
Test in all cases: DTP human tumour cell line panel, 48 h
[1] = test system: OVCAR-3 ovarian
[2] = test system: CAKI-1 renal
[3] = test system: KM20L2 colon
[4] = test system: M19-MEL melanoma
[5] = test system: OVCAR-5 ovarian
[6] = test system: HL-60(TB) leukemia
[7] = test system: UACC-257 melanoma
[8] = test system: SK-MEL-28 melanoma
[9] = test system: U251 CNS
[10] = test system: NCI-H460 lung
[11] = test system: SF-295 CNS
[12] = test system: NCI-H522 lung
[13] = test system: HOP-92 NSCLC
[14] = test system: ACHN renal
[15] = test system: CCRF-CEM leukemia
[16] = test system: SNB-75 CNS
[17] = test system: M14 melanoma
[18] = test system: 786-0 renal
[19] = test system: HCT-116 colon
[20] = test system: SK-MEL-5 melanoma
[21] = test system: UACC-62 melanoma
[22] = test system: DLD-1 colon
[23] = test system: OVCAR-4 ovarian
[24] = test system: RPMI-8226 leukemia
[25] = test system: TK-10 renal
[26] = test system: DMS 273 small cell lung
[27] = test system: SF-268 CNS
[28] = test system: LXFL 529 NSCLC
[29] = test system: OVCAR-8 ovarian
[30] = test system: KM12 colon
[31] = test system: HOP-62 NSCLC
[32] = test system: SF-539 CNS
[33] = test system: NCI-H226 lung
[34] = test system: A549 NSCLC
[35] = test system: NCI-H23 lung
[36] = test system: COLO 205 colon
[37] = test system: SNB-19 CNS
[38] = test system: IGROV1 ovarian
[39] = test system: MALME-3M melanoma
[40] = test system: HCC-2998 colon
[41] = test system: HCT-15 colon
[42] = test system: XF 498 CNS
[43] = test system: SK-MEL-2 melanoma
[44] = test system: UO-31 renal
[45] = test system: SR leukemia
[46] = test system: SW-620 colon
[47] = test system: DMS 114 small cell lung
[48] = test system: HT29 colon
[49] = test system: MOLT-4 leukemia
[50] = test system: K-562 leukemia
[51] = test system: A498 renal
[52] = test system: SNB-78 CNS
[53] = test system: LOX IMVI melanoma
[54] = test system: HOP-18 NSCLC
[55] = test system: RXF 393 renal
[56] = test system: SN12C renal
[57] = test system: EKVX NSCLC

C=CCOC1CC(n2cnc3c(N)ncnc32)OC1CO (stereo not given) showed a TGI [1] of over 100 µM, a TGI [2] of over 100 µM and a TGI [3] of over 100 µM. For the same molecule, the TGI [4] was over 100 µM, the TGI [5] was over 100 µM and the TGI [6] was over 100 µM. It also gave a TGI [7] of over 100 µM, a TGI [8] of over 100 µM and a TGI [9] of over 100 µM. The TGI [10] was over 100 µM, the TGI [11] was over 100 µM and the TGI [12] was over 100 µM. For the same molecule, the TGI [13] was over 100 µM, the TGI [14] was over 100 µM and the TGI [15] was over 100 µM. For the same molecule, the TGI [16] was over 100 µM, the TGI [17] was over 100 µM and the TGI [18] was over 100 µM. It also gave a TGI [19] of over 100 µM, a TGI [20] of over 100 µM and a TGI [21] of over 100 µM. For the same molecule, the TGI [22] was over 100 µM, the TGI [23] was over 100 µM and the TGI [24] was over 100 µM. The TGI [25] was over 100 µM, the TGI [26] was over 100 µM and the TGI [27] was over 100 µM. For the same molecule, the TGI [28] was over 100 µM, the TGI [29] was over 100 µM and the TGI [30] was over 100 µM. For the same molecule, the TGI [31] was over 100 µM, the TGI [32] was over 100 µM and the TGI [33] was over 100 µM. The TGI [34] was over 100 µM, the TGI [35] was over 100 µM and the TGI [36] was over 100 µM. The TGI [37] was over 100 µM, the TGI [38] was over 100 µM and the TGI [39] was over 100 µM. It also gave a TGI [40] of over 100 µM, a TGI [41] of over 100 µM and a TGI [42] of over 100 µM. The TGI [43] was over 100 µM, the TGI [44] was over 100 µM and the TGI [45] was over 100 µM. For the same molecule, the TGI [46] was over 100 µM, the TGI [47] was over 100 µM and the TGI [48] was over 100 µM. For the same molecule, the TGI [49] was over 100 µM and the TGI [50] was over 100 µM.

In the case of O=C1c2cccc([N+](=O)[O-])c2C(=O)c2nccnc21, the TGI [51] is reported as 17.3 µM, the TGI [1] is reported as 3.88 µM and the TGI [2] is reported as 16.4 µM. The TGI [3] was 6.16 µM, the TGI [4] was 0.276 µM and the TGI [5] was 9.6 µM. It also gave a TGI [52] of 7.38 µM, a TGI [6] of 4.81 µM and a TGI [7] of 1.66 µM. It also gave a TGI [53] of 2.68 µM, a TGI [8] of 3.01 µM and a TGI [9] of 4.34 µM. It also gave a TGI [10] of 2.79 µM, a TGI [11] of 3.5 µM and a TGI [12] of 2.75 µM. The TGI [13] was 18.6 µM, the TGI [14] was 15.1 µM and the TGI [15] was 5.65 µM. The TGI [16] was 2.35 µM, the TGI [17] was 2.96 µM and the TGI [18] was 3.2 µM. It also gave a TGI [54] of 3.06 µM, a TGI [19] of 3.66 µM and a TGI [20] of 1.13 µM. The TGI [21] was 2.62 µM, the TGI [22] was 11.4 µM and the TGI [23] was 2.8 µM. For the same molecule, the TGI [24] was 7.92 µM, the TGI [25] was 3.85 µM and the TGI [55] was 3.71 µM. For the same molecule, the TGI [26] was 12.3 µM, the TGI [56] was 3.64 µM and the TGI [29] was 7.09 µM. It also gave a TGI [32] of 2.93 µM, a TGI [33] of 4.06 µM and a TGI [34] of 3.37 µM. The TGI [35] was 2.98 µM, the TGI [37] was 4.04 µM and the TGI [39] was 3.04 µM. It also gave a TGI [40] of 6.17 µM, a TGI [41] of 2.92 µM and a TGI [43] of 2.9 µM. The TGI [44] was 2.6 µM, the TGI [45] was 5.04 µM and the TGI [46] was 3.92 µM. The TGI [47] was 2.3 µM, the TGI [48] was 4.3 µM and the TGI [49] was 5.22 µM. The TGI [50] was 4.17 µM and the TGI [57] was 3.92 µM.
